Strand notation (5' to 3'): a small letter for the sugar, then the base; units joined by * are phosphorothioate-linked, units joined directly phosphodiester-linked; [ ] holds rarer units or linkages, { } end groups; capitals alone tell only the bases. e = 2'-O-(2-methoxyethyl) (MOE); [5mC] = 5-methylcytosine; d = 2'-deoxy (DNA)
Tests used:
[1] = set-up: species or system Sprague-Dawley rats; conditions: rat, in vivo, sc, 20 mg/kg
Protocol: The concentration of the full-length oligonucleotide as well as the total oligonucleotide concentration (including the degraded form) was measured. The method used is a modification of previously published methods (Leeds et al., 1996; Geary et al., 1999) which consist of a phenol-chloroform (liquid-liquid) extraction followed by a solid phase extraction. An internal standard (ISIS 355868, a 27-mer 2′-O-methoxyethyl modified phosphorothioate oligonucleotide, […], designated herein as SEQ ID NO: 270) was added prior to extraction. […] The results are presented in Tables 91 and 92, expressed as μg/g liver or kidney tissue. Half-lives were then calculated using WinNonlin software ([…]).

Factor 11 activity = experiment: Factor 11 protein activity, F11 assay based on clotting time (Example 45); assay type: in vivo, cynomolgus monkeys; conditions: escalating dose regimen
Protocol: Groups, each consisting of two male and three female monkeys, were injected subcutaneously with ISIS 416838, ISIS 416850, ISIS 416858, ISIS 416864, or ISIS 417002 in escalating doses. Antisense oligonucleotide was administered to the monkeys at 5 mg/kg three times per a week for week 1; 5 mg/kg twice per week for weeks 2 and 3; 10 mg/kg three times per week for week 4; 10 mg/kg twice per week for weeks 5 and 6; 25 mg/kg three times per week for week 7; and 25 mg/kg twice per week for weeks 8, 9, 10, 11, and 12. One control group, consisting of two male and three female monkeys, was injected subcutaneously with PBS according to the same dosing regimen. An additional experimental group, consisting of two male and three female monkeys, was injected subcutaneously with ISIS 416850 in a chronic, lower dose regimen. Antisense oligonucleotide was administered to the monkeys at 5 mg/kg three times per week for week 1; 5 mg/kg twice per week for week 2 and 3; 10 mg/kg three times per week for week 4; and 10 mg/kg twice per week for weeks 5 to 12. Body weights were measured weekly. Blood samples were collected 14 days and 5 days before the start of treatment and subsequently once per week for Factor 11 protein activity analysis in plasma, fibrinogen measurement, PT and aPTT measurements, bleeding times, and measurement of various hematologic factors. On day 85, the monkeys were euthanized by exsanguination while under deep anesthesia, and organs harvested for further analysis.
Blood samples were collected at various time points and Factor 11 proenzyme was measured using a F11 assay based on clotting time. Clotting times were determined in duplicate with a ST4 semi-automated coagulation instrument (Diagnostica Stago, NJ). Thirty μl of citrated sample plasma diluted 1/20 in HEPES-NaCl buffer with BSA was incubated with 30 μl aPTT reagent (Automated aPTT, Organon Technika, NC) and 30 μl of citrated plasma deficient of Factor 11 (George King Bio-Medical Inc.) at 37° C. for 5 min, followed by the addition of 30 μl of 25 mM CaCl2) to initiate clotting. Results were interpolated on a standard curve of serially diluted citrated control plasma.
Results are presented in Table 118 as percent inhibition of Factor 11 activity, relative to PBS control. The ISIS oligonucleotide, ISIS 416850, given with the chronic dose regimen is distinguished from the other oligonucleotides with an asterisk (*).

[2] = Tolerability in Sprague-Dawley rats: hematology assays (Example 35); conditions: 50 mg/kg s.c. twice per week for 6 weeks; for HCT / MCH / MCHC / MCV: title says % control
[3] = Tolerability in CD1 mice: body weight and organ weight (Example 41); conditions: 50 mg/kg s.c. twice per week for 6 weeks; for body weight: increase in grams over the PBS control weight taken before the start of treatment; for Kidney weight / Liver weight / Spleen weight: percentage of the body weight

Substance	Half-life of ISIS oligonucleotides in the liver and kidney [1] [days]	percent inhibition of Factor 11 activity, relative to PBS control (Factor 11 activity; day 8) [%]	percent inhibition of Factor 11 activity, relative to PBS control (Factor 11 activity; day 15) [%]	percent inhibition of Factor 11 activity, relative to PBS control (Factor 11 activity; day 22) [%]	percent inhibition of Factor 11 activity, relative to PBS control (Factor 11 activity; day 29) [%]	percent inhibition of Factor 11 activity, relative to PBS control (Factor 11 activity; day 36) [%]	percent inhibition of Factor 11 activity, relative to PBS control (Factor 11 activity; day 43) [%]	percent inhibition of Factor 11 activity, relative to PBS control (Factor 11 activity; day 50) [%]	percent inhibition of Factor 11 activity, relative to PBS control (Factor 11 activity; day 57) [%]	percent inhibition of Factor 11 activity, relative to PBS control (Factor 11 activity; day 64) [%]	percent inhibition of Factor 11 activity, relative to PBS control (Factor 11 activity; day 71) [%]	percent inhibition of Factor 11 activity, relative to PBS control (Factor 11 activity; day 78) [%]	percent inhibition of Factor 11 activity, relative to PBS control (Factor 11 activity; day 85) [%]	percent inhibition of Factor 11 activity, relative to PBS control (Factor 11 activity; day −5) [%]	percent inhibition of Factor 11 activity, relative to PBS control (Factor 11 activity; day −14) [%]	Platelets [2]	RBC [2]	WBC [2] [nL⁻¹]	lymphocytes [2] [%]	monocytes [2] [%]	further results
412223 (antisense ACAGTTTCTGGCAGGCCTCG; 5-10-5 MOE gapmer, further chemistry not given here) [compound 412223]	22																				
412224 (antisense GCATTGGTGCACAGTTTCTG; 5-10-5 MOE gapmer, further chemistry not given here) [compound 412224]	17																				
412225 (antisense GCAGCGGACGGCATTGGTGC; 5-10-5 MOE gapmer, further chemistry not given here) [compound 412225]	21																				
413482 (antisense GGACGGCATTGGTGCACAGT; 5-10-5 MOE gapmer, further chemistry not given here) [compound 413482]	20																				
416856 (antisense GGCATTGGTGCACAGTTTCT; 5-10-5 gapmer, further chemistry not given here) [compound 416856]	19																				
ISIS 416838: MOE gapmer, nucleobases 1018 to 1042 of SEQ ID NO: 1 (Table 6) (antisense GCAACCGGGATGATGAGTGC; MOE gapmer, wing and gap sizes not given here)		3	4	5	8	11	5	8	10	11	12	10	10	0	0	27 10^3/μL	4	13	3	6	neutrophils [2]: 17%; HCT [2]: 5%; MCH [2]: 2; MCHC [2]: 5%; MCV [2]: 4
ISIS 416858: MOE gapmer, nucleobases 1275 to 1318 of SEQ ID NO: 1 (Table 8) (antisense ACGGCATTGGTGCACAGTTT; MOE gapmer, wing and gap sizes not given here)		6	16	23	28	35	39	49	60	68	71	73	78	0	0	19 10^3/μL	2	28	3	10	neutrophils [2]: 20%; HCT [2]: 3%; MCH [2]: 2; MCHC [2]: 1%; MCV [2]: 2
ISIS 416864: MOE gapmer, nucleobases 1275 to 1318 of SEQ ID NO: 1 (Table 8) (antisense GGCAGCGGACGGCATTGGTG; MOE gapmer, wing and gap sizes not given here)		7	9	7	10	9	9	10	7	5	10	9	8	5	0	12 10^3/μL	4	15	2	29	neutrophils [2]: 26%; HCT [2]: 2%; MCH [2]: 2; MCHC [2]: 4%; MCV [2]: 4
ISIS 417002: MOE gapmer, nucleobases 1275 to 1318 of SEQ ID NO: 1 (Table 8) (antisense GGTGCACAGTTTCTGGCAGG; MOE gapmer, wing and gap sizes not given here)		0	4	2	8	8	9	13	24	26	30	22	23	0	0	7 10^3/μL	5	23	4	25	neutrophils [2]: 22%; HCT [2]: 7%; MCH [2]: 3; MCHC [2]: 5%; MCV [2]: 7
ISIS 445522: 5-8-5 or 6-8-6 MOE microwalk gapmer (Table 44) (antisense eG*e[5mC]*eA*e[5mC]*eA*dG*dT*dT*dT*d[5mC]*dT*dG*dG*e[5mC]*eA*eG*eG*e[5mC])																					body weight [3]: 11 g; Kidney weight [3]: 1.7%; Liver weight [3]: 6%; Spleen weight [3]: 0.4%
ISIS 445531: 5-8-5 or 6-8-6 MOE microwalk gapmer (Table 44) (antisense eG*eG*e[5mC]*eA*eT*dT*dG*dG*dT*dG*d[5mC]*dA*d[5mC]*eA*eG*eT*eT*eT)																					body weight [3]: 10 g; Kidney weight [3]: 1.5%; Liver weight [3]: 6%; Spleen weight [3]: 0.5%

— US20230263822A1, “MODULATION OF FACTOR 11 EXPRESSION” (Ionis Pharmaceuticals, Inc., priority 2008, published 2023)
